Results taken from patent US20250129096A1, “ANNULATED 2-AMINO-3-CYANO THIOPHENES AND DERIVATIVES FOR THE TREATMENT OF CANCER” (Boehringer Ingelheim Int'l GmbH Corp., priority 2021, published 2025).
Values after ≈ are worked out from the molar mass of the structure shown. Read-outs that look alike come from different tables or passages of the source.

Assays:
[1] = system: NCI-H2122 cells (NSCLC, G12C); assay: NCI-H2122 CTG proliferation assay (120 h); assay type: cell-based; details: Homo sapiens, CellTiter-Glo
Experimental: The CTG assay is designed to measure quantitatively the proliferation of NCI-H2122 cells (ATCC CRL-5985), using the CellTiter Glow Assay Kit (Promega G7571). Cells are grown in RPMI medium (ATCC) supplemented with Fetal Calf Serum (Life Technologies, Gibco BRL, Cat. No. 10270-106). On “day 0” 200 NCI-H2122 cells are seeded in 60 μL RPMI ATCC+10% FCS+ Penstrep in a black 384-well plate, flat and clear bottom (Greiner, PNr. 781091). Cells are then incubated in the plates at 37° C. in a CO2 incubator overnight. On day 1, compounds (10 mM stock in DMSO) are added with the ECHO acoustic liquid handler system (Beckman Coulter), including DMSO controls. Plates are incubated for 120 h, and cell viability is measured using CellTiter-Glo luminescent cell viability reagent (Promega product code G7570). Viability (stated as percent of control) is defined as relative luminescence units RLU of each well divided by the RLU of cells in DMSO controls. IC50 values are determined from viability measurements by non-linear regression using a four-parameter model.

[2] = Metabolic (microsomal) stability assay, HLM; assay type: in vitro ADME; details: human liver microsomes, 1 μM test compound, predicted clearance as percent of liver blood flow
Experimental: The metabolic degradation of the test compound is assayed at 37° C. with pooled liver microsomes (mouse (MLM), rat (RLM) or human (HLM)). The final incubation volume of 48 μL per time point contains TRIS buffer (pH 7.5; 0.1 M), magnesium chloride (6.5 mM), microsomal protein (0.5 mg/mL for mouse/rat, 1 mg/mL for human specimens) and the test compound at a final concentration of 1 μM. Following a short preincubation period at 37° C., the reactions are initiated by addition of 12 μL beta-nicotinamide adenine dinucleotide phosphate, reduced form (NADPH, 10 mM) and terminated by transferring an aliquot into solvent after different time points (0, 5, 15, 30, 60 min). Additionally, the NADPH-independent degradation is monitored in incubations without NADPH, terminated at the last time point by addition of acetonitrile. The quenched incubations are pelleted by centrifugation (4,000 rpm, 15 min). An aliquot of the supernatant is assayed by LC-MS/MS to quantify the concentration of parent compound in the individual samples.
In vitro intrinsic clearance (CLint, in vitro) is calculated from the time course of the disappearance of the test drug during the microsomal incubation. Each plot is fitted to the first-order elimination rate constant as C(t)=C0*exp(−ke*t), where C(t) and C0 are the concentration of unchanged test drug at incubation time t and that at preincubation and ke is the disappearance rate constant of the unchanged drug. Subsequently, CLint, in vitro (μL min^−1·amount protein) values are converted to predicted CLint, in vivo (mL min^−1 kg^−1) from incubation parameters according to the equation CLint, in vivo=CLint, in vitro×(incubation volume (ml)/amount protein (mg))×(amount protein (mg)/g liver tissue)×(liver weight/body wt.). For better across species comparison the predicted clearance is expressed as percent of the liver blood flow [% QH] (mL min^−1 kg^−1) in the individual species. In general, high stability (corresponding to low % QH) of the compounds across species is desired.

KRAS G12C Ba/F3 cells = KRAS G12C Ba/F3 cells (Homo sapiens, UniProt P01116, G12C, cells depend on it); assay: Ba/F3 proliferation assay, KRAS G12C; assay type: cell-based; details: 72 h, AlamarBlue; read-out: KRAS G12C Ba/F3 IC50
Chain of KRAS G12C Ba/F3 cells (P01116 whole entry G12C, canonical isoform): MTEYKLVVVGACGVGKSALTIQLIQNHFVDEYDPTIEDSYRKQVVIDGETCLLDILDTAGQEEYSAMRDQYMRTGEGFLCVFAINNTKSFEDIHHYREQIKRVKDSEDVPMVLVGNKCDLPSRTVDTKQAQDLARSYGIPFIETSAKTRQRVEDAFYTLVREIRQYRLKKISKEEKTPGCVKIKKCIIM
Experimental: To generate KRASG12-dependent Ba/F3 models, Ba/F3 cells are transduced with retroviruses containing vectors that harbor KRASG12 isoforms. Platinum-E cells (Cell Biolabs) are used for retrovirus packaging. Retrovirus is added to Ba/F3 cells. To ensure infection, 4 μg/mL polybrene is added and cells are spinfected. […] Cells with an infection efficiency of 10% to 20% are further cultivated and puromycin selection with 1 μg/mL is initiated. As a control, parental Ba/F3 cells are used to show selection status. Selection is considered successful when parental Ba/F3 cells cultures died. To evaluate the transforming potential of KRASG12 mutations, the growth medium is no longer supplemented with IL-3. Ba/F3 cells harboring the empty vector are used as a control. Approximately ten days before conducting the experiments, puromycin is left out. […] All treatments are performed in technical duplicates. […] AlamarBlue™(ThermoFisher), a viability stain, is added and fluorescence measured in the PerkinElmer Envision HTS Multilabel Reader. The raw data are imported into and analyzed with the Boehringer Ingelheim proprietary software MegaLab (curve fitting based on the program PRISM, GraphPad Inc.).

[3] = system: AsPC-1 cells (pancreatic cancer, G12D); assay: AsPC-1 CTG proliferation assay (120 h); assay type: cell-based; details: Homo sapiens, ASPC1, CellTiter-Glo
Experimental: The CTG assay is designed to measure quantitatively the proliferation of AsPC-1 cells (ATCC […]), using the CellTiter Glow Assay Kit (Promega G7571). Cells are grown in RPMI medium (ATCC) supplemented with Fetal Calf Serum (Life Technologies, Gibco BRL, Cat. No. 10270-106). On “day 0” 2000 AsPC-1 cells are seeded in 60 μL RPMI ATCC+10% FCS+ Penstrep in a 384-well plate, flat and clear bottom (Greiner, PNr. 781091). Cells are then incubated in the plates at 37° C. in a CO2 incubator overnight. On day 1, compounds (10 mM stock in DMSO) are added with the ECHO acoustic liquid handler system (Beckman Coulter), including DMSO controls. Plates are incubated for 120 h, and cell viability is measured using CellTiter-Glo luminescent cell viability reagent (Promega product code G7570). Viability (stated as percent of control) is defined as relative luminescence units RLU of each well divided by the RLU of cells in DMSO controls. IC50 values are determined from viability measurements by non-linear regression using a four-parameter model.

[4] = Solubility measurement (DMSO solution precipitation method); assay type: physicochemical; details: aqueous buffer, kinetic from dmso stock, ambient temperature
Experimental: The DMSO solution is diluted with an aqueous medium (McIlvaine buffer with pH=4.5 or 6.8) to a final concentration of 250 μM. After 24 h of shaking at ambient temperature a potentially formed precipitate is removed by filtration. The concentration of the test compound in the filtrate is determined by LC-UV methods by calibrating the signal to the signal of a reference solution with complete dissolution of the test compound in acetonitrile/water (1:1) with known concentration.

[5] = McIlvaine buffer pH 4.5, 24 h, read-out: solubility pH 4.5
[6] = McIlvaine buffer pH 6.8, 24 h, read-out: solubility pH 6.8

Structure (SMILES) | IC50 [1] [µM] | HLM QH [2] [%] | GI50 (KRAS G12C Ba/F3 cells) [µM] | IC50 [3] [µM] | solubility at 24 h [4, 5] [µg/mL] | solubility at 24 h [4, 6] [µg/mL]
C[C@H]1CNCCCN1c1nccc(-c2noc3c2CCC[C@@]32CCCc3sc(N)c(C#N)c32)n1 (single isomer, unassigned) [IIb-5] | 6.36 | <24 | 0.088 | 3.62 | 92 (≈ 193 µM) | 51 (≈ 107 µM)
CC1Cc2c(-c3ccnc(N4CCCNC[C@@H]4C)n3)noc2C2(CCCc3sc(N)c(C#N)c32)C1 (some centres unmarked) [IIb-1] | 3.92 | <24 | 0.666 | 3.57 | 57 (≈ 116 µM) | 32 (≈ 65.4 µM)
C[C@H]1CNCCCN1c1nccc(-c2noc3c2CC(F)(F)CC32CCCc3sc(N)c(C#N)c32)n1 (some centres unmarked) [IIb-2] | 4.85 | 39 | 0.507 | 5.11 | 53 (≈ 104 µM) | 27 (≈ 52.8 µM)
C[C@H](Oc1ccnc(-c2noc3c2CCC[C@@]32CCCc3sc(N)c(C#N)c32)n1)[C@@H]1CCCN1C [IIb-3] | – | 64 | 0.023 | 0.65 | > 117 | > 120
C[C@H]1CNCCCN1c1nccc(-c2noc3c2CSCC32CCCc3sc(N)c(C#N)c32)n1 (some centres unmarked) [IIb-4] | 4.02 | – | 0.485 | 4.13 | – | –
C[C@H]1CNCCCN1c1nccc(-c2noc3c2OCCC32CCCc3sc(N)c(C#N)c32)n1 (some centres unmarked) [IIb-7] | 1.94 | <24 | 0.131 | 2.8 | > 103 | > 100
C[C@H](Oc1nccc(-c2noc3c2CCC[C@@]32CCCc3sc(N)c(C#N)c32)n1)[C@@]1(C)CCCN1C [IIe-1] | 6.38 | >88 | 0.254 | 5.52 | > 115 | > 114
C[C@H]1CNCCN1c1nccc(-c2noc3c2CCC[C@@]32CCCc3sc(N)c(C#N)c32)n1 [IIf-1] | 2.86 | 29 | – | 1.51 | – | –
C[C@@H]1NCCCN(c2nccc(-c3onc4c3CCC[C@@]43CCCc4sc(N)c(C#N)c43)n2)[C@H]1C [Ib-2] | 8.35 | 51 | 0.126 | 5.97 | – | –
C[C@H]1CNCCCN1c1ncnc(-c2onc3c2CCC[C@@]32CCCc3sc(N)c(C#N)c32)n1 [Ib-4] | > 25 | 34 | 0.295 | > 25 | > 104 | 95 (≈ 199 µM)
C[C@H]1[C@@H]2CCCN2CCCN1c1nccc(-c2onc3c2CCC[C@@]32CCCc3sc(N)c(C#N)c32)n1 [Id-1] | 9.46 | >88 | 0.042 | 3.57 | > 117 | > 108
CO[C@@H]1C[C@@H]([C@H](C)Oc2nccc(-c3onc4c3CCC[C@@]43CCCc4sc(N)c(C#N)c43)n2)N(C)C1 [Ie-1] | 1.5 | >88 | 0.043 | 5.48 | – | –
C[C@H](Oc1nccc(-c2onc3c2CCC[C@@]32CCCc3sc(N)c(C#N)c32)n1)[C@@H]1C[C@@H](F)CN1C [Ie-2] | 1.62 | >88 | 0.155 | 2.56 | > 125 | 41 (≈ 80.6 µM)
CCN1[C@H]2C[C@H]2C[C@H]1[C@H](C)Oc1nccc(-c2onc3c2CCC[C@@]32CCCc3sc(N)c(C#N)c32)n1 [Ie-3] | 5.26 | >88 | 0.049 | 8.03 | > 125 | > 123
CC(Oc1nccc(-c2onc3c2CCC[C@@]32CCCc3sc(N)c(C#N)c32)n1)C12CCCN1CCC2 (some centres unmarked) [Ie-5] | 1.22 | 63 | 0.118 | 5.86 | – | –
C[C@H]1CNCCCN1c1nccc(-c2onc3c2CCC[C@@]32CCCc3sc(N)c(C#N)c32)n1 [If-1] | 10.7 | 25 | 0.134 | 6.68 | – | –
C[C@H](Oc1nccc(-c2onc3c2CCC[C@@]32CCCc3sc(N)c(C#N)c32)n1)[C@@H]1C[C@@H]2C[C@@H]2N1 [If-2] | > 25 | – | 8.51 | > 25 | 89 (≈ 182 µM) | < 1
C[C@H](Oc1nccc(-c2onc3c2CCC[C@@]32CCCc3sc(N)c(C#N)c32)n1)[C@@H]1C[C@@H]2C[C@@H]2N1C [Ih-1] | 7.81 | >88 | 0.072 | 4.21 | > 110 | 93 (≈ 185 µM)
